Measurements as given in PubChem BioAssay AID702 (NMMLSC, 2007).
Inconclusive results are not listed. The source made the active and inactive calls. No rule for the calls is given here.

Target: Integrin alpha-4 (Homo sapiens) (UniProt P13612)
Assay: inhibition of LDV ligand binding to VLA-4 – cell-based, LDV-FITC binding, flow cytometry, dose response (AID 702)

Sequence of Integrin alpha-4 (Homo sapiens) (P13612 whole entry, looked up): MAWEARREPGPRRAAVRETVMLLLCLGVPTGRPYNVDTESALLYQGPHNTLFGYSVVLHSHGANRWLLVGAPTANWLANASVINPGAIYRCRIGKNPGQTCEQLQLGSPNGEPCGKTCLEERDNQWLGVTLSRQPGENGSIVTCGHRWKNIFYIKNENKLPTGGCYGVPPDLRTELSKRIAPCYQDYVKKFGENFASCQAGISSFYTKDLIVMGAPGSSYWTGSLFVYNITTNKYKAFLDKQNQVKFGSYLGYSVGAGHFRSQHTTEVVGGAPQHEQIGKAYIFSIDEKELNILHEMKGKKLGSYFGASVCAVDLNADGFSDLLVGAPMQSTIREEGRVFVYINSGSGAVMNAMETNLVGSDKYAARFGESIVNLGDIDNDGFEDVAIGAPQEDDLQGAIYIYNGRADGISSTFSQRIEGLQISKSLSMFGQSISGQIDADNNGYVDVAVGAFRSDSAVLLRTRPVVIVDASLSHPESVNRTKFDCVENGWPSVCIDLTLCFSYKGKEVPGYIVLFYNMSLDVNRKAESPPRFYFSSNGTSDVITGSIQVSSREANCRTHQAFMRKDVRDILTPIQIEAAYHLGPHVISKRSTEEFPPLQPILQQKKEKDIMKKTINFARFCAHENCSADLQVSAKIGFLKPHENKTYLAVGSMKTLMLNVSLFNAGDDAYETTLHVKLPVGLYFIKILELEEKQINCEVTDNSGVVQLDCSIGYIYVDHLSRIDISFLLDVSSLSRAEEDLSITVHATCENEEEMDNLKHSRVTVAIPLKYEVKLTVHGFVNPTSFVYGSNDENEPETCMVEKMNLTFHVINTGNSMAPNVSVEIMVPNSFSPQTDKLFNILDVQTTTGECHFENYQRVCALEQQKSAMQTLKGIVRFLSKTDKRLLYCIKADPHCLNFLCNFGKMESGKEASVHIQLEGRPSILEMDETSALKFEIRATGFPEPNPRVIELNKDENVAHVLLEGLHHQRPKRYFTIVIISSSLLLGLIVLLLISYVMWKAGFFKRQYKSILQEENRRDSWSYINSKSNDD

| EC50 [µM] | outcome | SMILES |
| --- | --- | --- |
| 17.3 | – | O=C1C(CCS(=O)c2ccccc2)C(=O)N(c2ccccc2)N1c1ccccc1 (stereo not given) |
| – | inactive | Cn1c(=O)cc(SCC(=O)N2CCN(C3CCCCC3)CC2)c2ccccc21 |
| – | inactive | CCOc1cc2[nH]c(=O)n(CCCC(=O)NCc3ccco3)c(=O)c2cc1OCC |
| 1.06 | – | CCCCC1C(=O)N(c2ccccc2)N(c2ccccc2)C1=O |
| 4.27 | – | CCOc1cc2[nH]c(=O)n(CC3CCC(C(=O)NC(C)CC)CC3)c(=O)c2cc1OCC (stereo not given) |
| – | inactive | COc1cc2[nH]c3c(N4CCN(c5ccccn5)CC4)ncnc3c2cc1OC |
| – | inactive | CCCCC1(O)C(=O)N(c2ccccc2)N(c2ccccc2)C1=O |
| – | inactive | COc1cc2[nH]c(=O)n(CCCC(=O)N3CCOCC3)c(=O)c2cc1OC |
| 6.5 | – | Cc1onc(-c2ccccc2)c1C(=O)NC(CC(=O)O)c1ccc(OC(C)C)cc1 (stereo not given) |
| – | inactive | CCCCN1C(=O)N(c2ccccc2)C(CCCC)(c2ccccc2)C1=O (stereo not given) |
| – | inactive | CCOc1cc2[nH]c(=O)n(CCCCCC(=O)NCc3ccco3)c(=O)c2cc1OCC |
| – | inactive | CCOc1cc2[nH]c(=O)n(CCCN3CCCC3=O)c(=O)c2cc1OCC |
| 0.08 | – | CCCOc1ccc(C(CC(=O)O)NC(=O)C23CC4CC(CC(C4)C2)C3)cc1 (stereo not given) |
| – | inactive | O=C1NC(=O)N(c2ccccc2)C1c1ccccc1 (stereo not given) |
| – | inactive | CCOc1cc2[nH]c(=O)n(CCC(=O)NCCOC)c(=O)c2cc1OCC |
| – | inactive | CCCCN1C(=O)C(c2ccccc2)N(c2ccccc2)C1=O (stereo not given) |
| 4.6 | – | CCCCCNC(=O)CCCCn1c(=O)[nH]c2cc(OCC)c(OCC)cc2c1=O |
| 52.6 | – | Cc1cc(C)cc(-n2ccnc(SCC(=O)Nc3ccc(Cl)cc3F)c2=O)c1 |
| 2.34 | – | CCOc1cc2[nH]c(=O)n(CC3CCC(C(=O)NCCC(C)C)CC3)c(=O)c2cc1OCC (stereo not given) |
| – | inactive | CCCCN1C(=O)NC(c2ccccc2)C1=O (stereo not given) |

| EC50 [µM] | outcome | SMILES |
| --- | --- | --- |
| – | inactive | COc1cc2[nH]c(=O)n(CCC(=O)N3CCc4ccccc4C3)c(=O)c2cc1OC |
| 14.1 | – | O=C(Cn1nc(-c2ccc3c(c2)OCCO3)ccc1=O)Nc1ccc(N2CCOCC2)cc1 |
| – | inactive | COc1cccc2sc(Nc3nc(-c4ccncc4)cs3)nc12 |
| – | inactive | O=C(NCC12CC3CC(CC(C3)C1)C2)c1nn2c(c1Cl)NC(c1ccco1)CC2C(F)(F)F (stereo not given) |
| 4.13 | – | CC(C)Oc1ccc(C(CC(=O)O)NC(=O)C2CCCCC2)cc1 (stereo not given) |
| – | inactive | COc1cccc2sc(Nc3nc(C)c(C(C)=O)s3)nc12 |
| – | inactive | COc1ccccc1-c1nnc(Nc2nc3c(OC)cccc3s2)o1 |
| – | inactive | O=C1NC(=O)C(c2ccccc2)N1 (stereo not given) |
| – | inactive | CCOc1cc2[nH]c(=O)n(CCCC(=O)N3CCCC3)c(=O)c2cc1OCC |
| 20.2 | – | N/C(=N/O)c1nc(N2CCCC2)nc(N(c2ccccc2)c2ccccc2)n1 |
| 31.8 | – | Cc1oc2cc(O)ccc2c(=O)c1Oc1ccccc1Br |
| – | inactive | O=C(O)CCCn1c(=O)[nH]c2cc3c(cc2c1=O)OCO3 |
| – | inactive | COc1cc2[nH]c(=O)n(CCC(=O)NCc3cccnc3)c(=O)c2cc1OC |
| – | inactive | CCCCC1(C)C(=O)N(c2ccccc2)N(c2ccccc2)C1=O |
| 5.14 | – | COc1cccc2sc(Nc3nnc(-c4ccccc4Cl)o3)nc12 |
| – | inactive | COc1cc(Cn2c(-c3nonc3N)nc3ccccc32)ccc1C |
| – | inactive | CCCCC1(C(=O)O)C(=O)N(c2ccccc2)N(c2ccccc2)C1=O |
| 5.13 | – | CCOc1cc2[nH]c(=O)n(CCCCC(=O)NC3CCCCCC3)c(=O)c2cc1OCC |
| 0.09 | – | CCOc1ccc(C(CC(=O)O)NC(=O)C23CC4CC(CC(C4)C2)C3)cc1 (stereo not given) |
| 45.1 | – | C=C(C)C1Cc2c(C)nn(-c3nc(C)cc(C)n3)c2C1 (stereo not given) |
